The results in this text go back to ChEMBL document CHEMBL1201862, “PubChem BioAssay data set” (2004).

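How tested: cells in 96-well plates exposed to compound for 48 hours at five concentrations. GI50 marks 50% less growth.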 Calls of active or inactive are those of the source. No stated cut-off is given here; in the data, active = GI50 up to about 1.1 µM and inactive = higher.

Some test systems named below: MOLT-4; HOP-92; HOP-62; OVCAR-3; HT-29; NCI/ADR-RES; DU-145; SK-MEL-5; SW-620; TK-10; HCT-15; KM12; NCI-H522; SK-MEL-2; UO-31; IGROV-1; MDA-MB-435; UACC-62; MDA-N.
Common to all, as to assay: NCI anticancer screen, dose series, 48 h

As to `COc1cc(/C=C2\C[C@H]3[C@@H]4CC=C5C[C@@H](N6CCCC6)CC[C@]5(C)[C@H]4CC[C@]3(C)[C@H]2O)cc(OC)c1OC`, the GI50 was 8.11 µM (inactive) with MOLT-4; 12.5 µM (inactive) in the test on HOP-92; 16.1 µM (inactive) in the test on HOP-62; 15.5 µM (inactive) in the test with OVCAR-3; 3.38 µM (inactive) with HT-29; 15.8 µM (inactive) with NCI/ADR-RES. Besides, the GI50 with DU-145 is 16.8 µM (inactive); in the test with SK-MEL-5 it was 14.5 µM (inactive); with SW-620, 8.04 µM (inactive); in the test on TK-10, 20.3 µM (inactive); in the test with HCT-15, 11.7 µM; in the test on KM12 it was 7.57 µM (inactive). Also, the GI50 with NCI-H522 was 13.4 µM (inactive); with SK-MEL-2, 19.5 µM (inactive); in the test with UO-31 it was 2.8 µM (inactive); in the test on IGROV-1, 15.9 µM (inactive); with MDA-MB-435, 4.45 µM (inactive); with UACC-62, 18.6 µM (inactive).

Regarding `ClC1(c2ccccc2)c2ccc(Br)cc2-c2cc(Br)ccc21`, the GI50 is 32.5 µM (inactive) in the test with MOLT-4; 15.6 µM (inactive) in the test on HOP-92; 19.3 µM (inactive) in the test on HOP-62; 16.9 µM (inactive) in the test with OVCAR-3; 12.3 µM (inactive) in the test on HT-29; 18.1 µM (inactive) with NCI/ADR-RES. The GI50 is 22.6 µM (inactive) in the test with DU-145; 15.7 µM (inactive) in the test with SK-MEL-5; 19.8 µM (inactive) in the test with SW-620; 19 µM (inactive) with TK-10; 16 µM in the test on HCT-15; 19.4 µM (inactive) with KM12. Besides, the GI50 in the test on NCI-H522 was 14.2 µM (inactive); in the test on SK-MEL-2, 17.8 µM (inactive); in the test with UO-31, 15.5 µM (inactive); in the test on IGROV-1, 16.2 µM (inactive); in the test on MDA-MB-435 it was 13.5 µM (inactive).

Turning to `C#CCCCCC#Cc1ccccc1C(=O)C=[N+]=[N-]`, the GI50 in the test with MOLT-4, with HOP-92, in the test with HOP-62, with HT-29, with DU-145 and with SK-MEL-5 was > 100 µM (inactive) throughout. Further, the GI50 is > 100 µM (inactive) with SW-620; > 100 µM (inactive) with TK-10; above 100 µM in the test with HCT-15; > 100 µM (inactive) with MDA-N; > 100 µM (inactive) with NCI-H522; > 100 µM (inactive) in the test with SK-MEL-2. The GI50 in the test on UO-31, in the test on IGROV-1, with MDA-MB-435 and in the test on UACC-62 was > 100 µM (inactive) each time.

Consider `CC12CC(c3ccccc3O1)C(C(=O)Nc1ccc(F)cc1)C(=O)N2` (configuration not stated), for which the GI50 was 21.1 µM (inactive) in the test on MOLT-4; > 100 µM (inactive) with HOP-62; > 100 µM (inactive) in the test with OVCAR-3; 89.9 µM (inactive) in the test with HT-29; 47.4 µM (inactive) with NCI/ADR-RES; > 100 µM (inactive) with DU-145. In addition, the GI50 in the test on SK-MEL-5 was 32.5 µM (inactive); with SW-620 it was > 100 µM (inactive); in the test on HCT-15, above 100 µM; in the test with MDA-N, > 100 µM (inactive); with KM12, > 100 µM (inactive); with NCI-H522, 63.2 µM (inactive). In addition, the GI50 in the test on SK-MEL-2 was > 100 µM (inactive); with UO-31, 65.9 µM (inactive); in the test on IGROV-1, 49.1 µM (inactive); in the test with MDA-MB-435 it was > 100 µM (inactive); in the test on UACC-62, 71.6 µM (inactive).

In the case of `C[C@]12Cc3cnn(-c4ccc(F)cc4)c3NC1CC[C@@H]1C2CC[C@@]2(C)C1CC[C@@H]2O` (some centres not stated), the GI50 was 2.5 µM (inactive) in the test with MOLT-4; 11 µM (inactive) with HOP-92; 9.75 µM (inactive) with HOP-62; 12.4 µM (inactive) in the test on OVCAR-3; 1.83 µM (inactive) with HT-29; 5.42 µM (inactive) with DU-145. Moreover, the GI50 in the test on SK-MEL-5 is 2.65 µM (inactive); in the test with SW-620, 3.83 µM (inactive); with TK-10 it was 7.71 µM (inactive); in the test with MDA-N, 10.2 µM (inactive); with KM12, 4.95 µM (inactive); in the test on NCI-H522 it was 12.2 µM (inactive). Further, the GI50 was 8.61 µM (inactive) in the test with UO-31, 12.7 µM (inactive) in the test on IGROV-1, 7.8 µM (inactive) in the test on MDA-MB-435 and 11 µM (inactive) with UACC-62.

On to `Oc1ccc(-c2c3ccccc3c(-c3ccc(OCCBr)cc3)c3ccccc23)cc1`, for which the GI50 with MOLT-4 was > 100 µM (inactive); in the test with HOP-62, 24 µM (inactive); with OVCAR-3 it was 14.6 µM (inactive); in the test on HT-29, 19.6 µM (inactive); in the test with NCI/ADR-RES, 19.6 µM (inactive); in the test on DU-145 it was > 100 µM (inactive). Further, the GI50 in the test with SK-MEL-5 is 19.1 µM (inactive); in the test on SW-620, 53.3 µM (inactive); in the test on TK-10 it was 34.5 µM (inactive); in the test with HCT-15, 30.7 µM; with MDA-N it was 26.4 µM (inactive); in the test on KM12, 29.4 µM (inactive). Besides, the GI50 in the test with NCI-H522 is 35 µM (inactive); in the test with SK-MEL-2, 22.2 µM (inactive); in the test with UO-31, 67.6 µM (inactive); in the test on IGROV-1, 22 µM (inactive); with MDA-MB-435, 21.7 µM (inactive); with UACC-62, 19.7 µM (inactive).

As for `CC(O)[C@@]1(c2ccccc2)CC2(CCN(C)CC2)O[C@H]1C` (some centres not stated), the GI50 in the test with MOLT-4 is > 100 µM (inactive); in the test on HOP-92, 22.2 µM (inactive); in the test on HOP-62 it was > 100 µM (inactive); in the test on OVCAR-3, > 100 µM (inactive); in the test on HT-29, > 100 µM (inactive); in the test with NCI/ADR-RES, > 100 µM (inactive). In addition, the GI50 is > 100 µM (inactive) in the test on DU-145; 61.2 µM (inactive) with SK-MEL-5; > 100 µM (inactive) with SW-620; > 100 µM (inactive) in the test with TK-10; above 100 µM in the test with HCT-15; > 100 µM (inactive) in the test with KM12. Further, the GI50 is > 100 µM (inactive) in the test on NCI-H522; > 100 µM (inactive) in the test on SK-MEL-2; 39.8 µM (inactive) with UO-31; > 100 µM (inactive) with IGROV-1; > 100 µM (inactive) in the test on MDA-MB-435; 99.5 µM (inactive) in the test on UACC-62.

For the compound `C=CCOC(=O)Cn1ccc(=O)[nH]c1=O`, the GI50 in the test with MOLT-4, in the test with HOP-62, in the test on HT-29, in the test with NCI/ADR-RES, in the test with DU-145 and in the test with SK-MEL-5 was > 100 µM (inactive) each time. The GI50 is > 100 µM (inactive) in the test on SW-620; > 100 µM (inactive) in the test on TK-10; above 100 µM with HCT-15; > 100 µM (inactive) in the test on MDA-N; > 100 µM (inactive) in the test with KM12; > 100 µM (inactive) with SK-MEL-2. Besides, the GI50 in the test with UO-31, with IGROV-1 and in the test on UACC-62 was > 100 µM (inactive) each time.

Turning to `CCOc1cc2c(cc1O)/C(=N/NS(=O)(=O)c1ccc(C)cc1)C[C@@H]1[C@@H]2CC[C@]2(C)[C@@H](O)CC[C@@H]12`, the GI50 with MOLT-4 is 1.92 µM (inactive); in the test on HOP-92 it was 8.65 µM (inactive); in the test on HT-29, 2.89 µM (inactive); in the test with NCI/ADR-RES, 3.5 µM (inactive); in the test with SK-MEL-5 it was 2.47 µM (inactive); in the test on SW-620, 3.52 µM (inactive). The GI50 is 51.1 µM (inactive) with TK-10; 4.53 µM in the test with HCT-15; 1.2 µM (inactive) in the test with MDA-N; 4.22 µM (inactive) in the test on KM12; 3.31 µM (inactive) with NCI-H522; 3.94 µM (inactive) with SK-MEL-2. Also, the results for the GI50 with UO-31 and in the test with IGROV-1 were 4.2 µM (inactive) and 12.1 µM (inactive), respectively.

Turning to `O=c1[nH]c2ccc(CC(=S)N3CCN(c4ccccc4)CC3)cc2s1`, the GI50 was 16.5 µM (inactive) in the test with MOLT-4; 16.6 µM (inactive) with HOP-62; 23.4 µM (inactive) with OVCAR-3; 51.8 µM (inactive) in the test with HT-29; 13.2 µM (inactive) in the test on NCI/ADR-RES; 51.6 µM (inactive) with DU-145. Besides, the GI50 was 71.9 µM (inactive) in the test with SW-620; 36.6 µM (inactive) with TK-10; 42.2 µM in the test on HCT-15; > 100 µM (inactive) in the test on MDA-N; 26.2 µM (inactive) in the test with KM12; 82.2 µM (inactive) in the test with SK-MEL-2. In addition, the GI50 was 0.063 µM (active) with UO-31, 9.16 µM (inactive) in the test on IGROV-1, 72.8 µM (inactive) with MDA-MB-435 and 62.7 µM (inactive) in the test with UACC-62.

In the case of `COc1cc2c(cc1O)CCN[C@@]21CS[C@H]2c3c(OC(C)=O)c(C)c4c(c3C(COC1=O)N1C2C2NC(Cc3cc(C)c(OC)c(O)c32)[C@@H]1O)OCO4` (some centres not stated), the GI50 with HOP-92, in the test on HOP-62, in the test on HT-29, in the test on NCI/ADR-RES, with DU-145 and in the test with SK-MEL-5 was < 0.01 µM (active) throughout. Moreover, the GI50 with SW-620, in the test on TK-10, with KM12, in the test with NCI-H522, with SK-MEL-2 and in the test on UO-31 was < 0.01 µM (active) throughout. Also, the GI50 with IGROV-1 and in the test with MDA-MB-435 was < 0.01 µM (active) in each case.

For the compound `Cc1ccc(/C=C2\CCCCCC2=O)cc1`, the GI50 with MOLT-4, in the test with HOP-92, in the test with HOP-62, in the test with OVCAR-3, with HT-29 and with DU-145 was > 100 µM (inactive) each time. Also, the GI50 is > 100 µM (inactive) in the test with SK-MEL-5; > 100 µM (inactive) with SW-620; > 100 µM (inactive) with TK-10; above 100 µM with HCT-15; > 100 µM (inactive) in the test with MDA-N; > 100 µM (inactive) in the test on KM12. Further, the GI50 in the test on NCI-H522, with SK-MEL-2, in the test on UO-31, in the test with IGROV-1, in the test with MDA-MB-435 and with UACC-62 was > 100 µM (inactive) each time.
